Reference: US20250230193A1, “CYCLIC COMPOUND HAVING SELECTIVE KRAS INHIBITORY EFFECT ON HRAS AND NRAS” (CHUGAI SEIYAKU KABUSHIKI KAISHA, priority 2022, published 2025)
Where a SMILES comes first, the peptide text is derived from it. Bridges are numbered along the chain shown (N, C = ends). [ ]: non-standard residue; d: D form. The star is where a group is joined. hPhe(3-Cl-4-CF3) = N[C@@H](CCc1ccc(C(F)(F)F)c(Cl)c1)C(=O)O; NPrPhe(4-CF3) = CCCN[C@@H](Cc1ccc(C(F)(F)F)cc1)C(=O)O; NMeGly(cPent) = CN[C@H](C(=O)O)C1CCCC1; Hyp = O=C(O)[C@@H]1C[C@@H](O)CN1; NMeL = CN[C@@H](CC(C)C)C(=O)O; Morpholide = C1CN(*)CCO1; Ac5c = NC1(C(=O)O)CCCC1; Aze = O=C(O)[C@@H]1CCN1; NEtG = CCNCC(=O)O; Sar = CNCC(=O)O

Assays:
[1] = biological target: GDP-bound NRAS wild-type protein (Homo sapiens, UniProt P01111); experiment: Binding to NRAS by surface plasmon resonance (SPR), Single Cycle Kinetics
[2] = biological target: GDP-bound HRAS wild-type protein (Homo sapiens, UniProt P01112); experiment: Binding to HRAS by surface plasmon resonance (SPR), Single Cycle Kinetics
[3] = KD ratio, GDP-bound NRAS wild-type vs GDP-bound KRAS wild-type, SPR
[4] = KD ratio, GDP-bound HRAS wild-type vs GDP-bound KRAS wild-type, SPR
[5] = SPR, GDP-bound wild-type proteins

Sequence of GDP-bound HRAS wild-type protein (P01112 whole entry): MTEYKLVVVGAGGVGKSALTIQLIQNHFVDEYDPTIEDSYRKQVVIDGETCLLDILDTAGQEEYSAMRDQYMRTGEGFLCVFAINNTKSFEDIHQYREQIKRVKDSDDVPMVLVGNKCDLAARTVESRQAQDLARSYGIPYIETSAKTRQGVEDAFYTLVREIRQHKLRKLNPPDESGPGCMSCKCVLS
Sequence of GDP-bound NRAS wild-type protein (P01111 whole entry): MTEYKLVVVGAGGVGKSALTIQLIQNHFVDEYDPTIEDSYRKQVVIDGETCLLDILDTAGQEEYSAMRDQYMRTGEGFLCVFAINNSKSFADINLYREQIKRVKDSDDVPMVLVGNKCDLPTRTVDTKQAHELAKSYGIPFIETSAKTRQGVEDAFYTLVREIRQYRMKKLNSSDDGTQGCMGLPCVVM

CCC[C@H]1C(=O)N[C@@H]([C@@H](C)CC)C(=O)N(C2CC2)CC(=O)N(C)[C@H]2C/C=C\CCN(C2=O)[C@@H](Cc2ccc(C)cc2)C(=O)N(C)CC(=O)N[C@@H](CCc2ccc(Cl)c(Cl)c2)C(=O)N2C[C@H](OCC)C[C@H]2C(=O)NC2(CC(C)(C)C2)C(=O)N(C)[C@@H](CC(C)(C)C)C(=O)N(C)[C@H](C(=O)N(C)C)CC(=O)N1C [PP2726]
NRAS/KRAS (ratio of KD value with respect to GDP-bound NRAS wild-type protein to KD value with respect to KRAS) ([1]; class symbols): AA (a compound having 20 or more is denoted as AA)
HRAS/KRAS (ratio of KD value with respect to GDP-bound HRAS wild-type protein to KD value with respect to KRAS) ([2]; class symbols): A (a compound having 10 or more and less than 20 is denoted as A)

CC[C@H](C)[C@@H]1NC(=O)[C@H](CC(C)C)N(C)C(=O)C[C@@H](C(=O)N2CCOCC2)N(C)C(=O)[C@H](C2CCCC2)N(C)C(=O)C2(CCCC2)NC(=O)[C@@H]2CCCN2C(=O)[C@H](CCc2cc(F)c(C(F)(F)F)c(F)c2)NC(=O)CN(C)C(=O)[C@H](Cc2ccc(C(F)(F)F)cc2)N2CCCC[C@@H](C2=O)N(C)C(=O)CN(CC)C1=O [PP0545]
NRAS/KRAS (ratio of KD value with respect to GDP-bound NRAS wild-type protein to KD value with respect to KRAS) ([1]; SPR): B (a compound having 3 or more and less than 10 is denoted as B)
HRAS/KRAS (ratio of KD value with respect to GDP-bound HRAS wild-type protein to KD value with respect to KRAS) ([2]; SPR): B (a compound having 3 or more and less than 10 is denoted as B)

CCCN1C(=O)[C@@H]2CCN2C(=O)CN(C)C(=O)[C@H]([C@@H](C)CC)NC(=O)[C@H](CC(C)C)N(C)C(=O)C[C@@H](C(=O)N(C)C)NC(=O)[C@H](C2CCCC2)N(C)C(=O)C2(CCCC2)NC(=O)[C@@H]2C[C@@H](OCC)CN2C(=O)[C@H](CCc2ccc(C(F)(F)F)c(Cl)c2)NC(=O)CN(C)C(=O)[C@@H]1Cc1ccc(C(F)(F)F)cc1 [PP0389] ([NMeL]I[Sar][Aze][NPrPhe(4-CF3)][Sar][hPhe(3-Cl-4-CF3)][Hyp](Et)[Ac5c][NMeGly(cPent)]D-NMe2; lactam N-11)
NRAS/KRAS (ratio of KD for GDP-bound NRAS wild-type to KD for KRAS) ([1]; SPR): C (A compound having a KD ratio of 0.1 or more and less than 3 is denoted as C)
HRAS/KRAS (ratio of KD for GDP-bound HRAS wild-type to KD for KRAS) ([2]; SPR): B (a compound having 3 or more and less than 10 is denoted as B)

CC[C@H](C)[C@@H]1NC(=O)[C@H](CC(C)C)N(C)C(=O)C[C@@H](C(=O)N(C)C)N(C)C(=O)[C@H](C2CCCC2)N(C)C(=O)C2(CC(C)(C)C2)NC(=O)[C@@H]2CCCN2C(=O)[C@H](CCc2cc(F)c(C(F)(F)F)c(F)c2)NC(=O)CN(C)C(=O)[C@H](Cc2ccc(C(F)(F)F)cc2)N2CC/C=C\C[C@@H](C2=O)N(C)C(=O)CN(C)C1=O [PP1727]
NRAS/KRAS (ratio of KD value for NRAS to KD value for KRAS) [1, 3]: A (a compound having 10 or more and less than 20 is denoted as A)
HRAS/KRAS (ratio of KD value for HRAS to KD value for KRAS) [2, 4]: A (a compound having 10 or more and less than 20 is denoted as A)

CCO[C@@H]1C[C@H]2C(=O)NC3(CC(C)(C)C3)C(=O)N(C)[C@@H](CC3CCC3)C(=O)N(C)[C@H](C(=O)N(C)C)CC(=O)N(C)[C@@H](COC)C(=O)N[C@@H]([C@@H](C)CC)C(=O)N(C3CC3)CC(=O)N(C)[C@H]3C/C=C\CCN(C3=O)[C@@H](Cc3ccc(C(F)(F)F)cc3)C(=O)N(C)CC(=O)N[C@@H](CCc3ccc(Cl)c(Cl)c3)C(=O)N2C1 [PP2821]
NRAS/KRAS (ratio of KD value with respect to GDP-bound NRAS wild-type protein to KD value with respect to KRAS) ([1]; class symbols): A (a compound having 10 or more and less than 20 is denoted as A)
HRAS/KRAS (ratio of KD value with respect to GDP-bound HRAS wild-type protein to KD value with respect to KRAS) ([2]; class symbols): A (a compound having 10 or more and less than 20 is denoted as A)

CCCN1C(=O)CN(C)C(=O)CN(CC)C(=O)[C@H]([C@@H](C)CC)NC(=O)[C@H](CC(C)C)N(C)C(=O)C[C@@H](C(=O)N2CCOCC2)NC(=O)[C@H](C2CCCC2)N(C)C(=O)C2(CCCC2)NC(=O)[C@@H]2CCCN2C(=O)[C@H](CCc2ccc(C(F)(F)F)c(Cl)c2)NC(=O)CN(C)C(=O)[C@@H]1Cc1ccc(C(F)(F)F)cc1 [PP0331] ([NMeL]I[NEtG][Sar][NPrPhe(4-CF3)][Sar][hPhe(3-Cl-4-CF3)]P[Ac5c][NMeGly(cPent)]D-Morpholide; lactam N-11)
NRAS/KRAS (ratio of KD for GDP-bound NRAS wild-type to KD for KRAS) ([1]; SPR): B (a compound having 3 or more and less than 10 is denoted as B)
HRAS/KRAS (ratio of KD for GDP-bound HRAS wild-type to KD for KRAS) ([2]; SPR): B (a compound having 3 or more and less than 10 is denoted as B)

CCO[C@@H]1C[C@H]2C(=O)NC3(CCC3)C(=O)N(C)[C@@H](C3CCCC3)C(=O)N(C)[C@H](C(=O)N3CCOCC3)CC(=O)N(C)[C@@H](CC(C)C)C(=O)N[C@@H](C3CC(F)(F)C3)C(=O)N(C)CC(=O)N(C)[C@H]3CCCCCN(C3=O)[C@@H](Cc3ccc(C(F)(F)F)cc3)C(=O)N(C)CC(=O)N[C@@H](CCc3cc(F)c(C(F)(F)F)c(F)c3)C(=O)N2C1 [PP0816]
NRAS/KRAS (ratio of KD value with respect to NRAS to KD value with respect to KRAS) [1, 3]: A (a compound having 10 or more and less than 20 is denoted as A)
HRAS/KRAS (ratio of KD value with respect to HRAS to KD value with respect to KRAS) [2, 4]: B (a compound having 3 or more and less than 10 is denoted as B)

CC[C@H](C)[C@@H]1NC(=O)[C@@H]2CCC/C=C/c3ccc(cc3)C[C@@H](C(=O)N(C)CC(=O)N[C@@H](CCc3ccc(Cl)c(Cl)c3)C(=O)N3C[C@H](OC4CCC4)C[C@H]3C(=O)NC3(CC(C)(C)C3)C(=O)N(C)[C@@H](C3CCCC3)C(=O)N(C)[C@H](C(=O)N3CCCC3)CC(=O)N2C)N2CC/C=C\C[C@@H](C2=O)N(C)C(=O)CN(C)C1=O [PP3053]
NRAS/KRAS (ratio of KD value with respect to GDP-bound NRAS wild-type protein to KD value with respect to KRAS) [1, 5]: A (a compound having 10 or more and less than 20 is denoted as A)
HRAS/KRAS (ratio of KD value with respect to GDP-bound HRAS wild-type protein to KD value with respect to KRAS) [2, 5]: A (a compound having 10 or more and less than 20 is denoted as A)
